Laboratory results as given in US20060099170A1, “Compositions for inducing increased levels of beta-chemokines and methods of use therefor” (priority 2002, published 2006).
Where two headings read alike, the source gives them in different places.

Key:
[1] = system: HIV-1 ADA; assay: Antiviral activity of RAPA in monocyte-derived macrophages (RT assay); assay type: cell-based
Procedure: (§1) Cultures of peripheral blood mononuclear cells (PBMCs) and monocyte-derived macrophages (MDMs) were performed on normal donors as described (Poli, et al. 1993, Perno, et al., 1993). PBMCs were maintained in the presence of 100 units/ml rhIL-2 (Roche Molecular Biochemicals). Cell viability was determined by Trypan blue staining or by the MTT assay (Roche Molecular Biochemicals). RAPA was purchased from Calbiochem. The CCR5 antagonist TAK-779 was obtained from the National Institutes of Health AIDS Research and Reference Reagent Program (Rockville, Md.). CCR5 surface expression was measured on PBMCs cultured in the presence of IL-2 for 7-10 days. Staining was done as described (Lane, et al. 1999), but using CCR5 mAb 182 (R & D Systems). Background staining was determined by adding an isotype-matched control (IgG2b, R&D Systems) instead of the anti-CCR5 mAb. Data were acquired by using a FACS Calibur flow cytometer (BD Biosciences) and analyzed by using FLOWJO (Tree Star, San Carlos, Calif.).
(§2) For infection of PBMCs, fresh donor PBMCs were cultured for 7 days in medium containing IL-2. On day 7, cells were exposed to the virus for 3 h. Nonadsorbed virus was removed by washing cells with PBS three times. Infected cells were cultured in IL-2 medium. Infection of MDMs was carried out as described before (Pemo, et al. 1993). Unless otherwise indicated, PBMCs were infected by using a moi of 0.001, and monocyte-derived macrophages (MDMs) were infected by using a moi of 0.002. Virus growth was monitored in culture supernatants by measuring p24 antigen levels by ELISA (NEN) or by measuring viral RT activity in an RT assay (Willey, et al., 1988).
(§3) On day 5, cells were infected with HIV-1 ADA. Infected cells were cultured in the presence of RAPA for an additional 14 days. Virus production was measured on the culture supernatants on days 7, 10, and 14 after infection.
In the above-described experiment, monocytes had been pretreated with RAPA during the 5-day differentiation period. To control for the possible interference of RAPA with the process of monocyte differentiation, a new infection experiment in which RAPA was not present during the 5-day monocyte differentiation period was designed. To this end, fresh monocytes were cultured for 5 days in the absence of RAPA. On day 5, cells were infected with HIV-1 ADA and then exposed to RAPA.

[2] = system: PBMCs; assay: β-chemokine levels (ELISA) in supernatants of IL-2 PBMC cultures with RAPA; assay type: cell-based, human
Procedure: RAPA was purchased from Calbiochem.
Levels of the β-chemokines MIP-1α, MIP-1β and RANTES were measured in culture supernatants by using ELISA kits (R & D Systems).
We next measured levels of the CCR5 ligands MIP-1α, MIP-1β, and RANTES in supernatants of RAPA-treated PBMC cultures. PBMCs from four donors were cultured in the presence of IL-2 and RAPA for 10 days. […] Among the different donors, RAPA-treated cultures contained 6-39-fold higher levels of MIP-1α than untreated cultures. Similarly, MIP-1β levels were increased 17-47-fold in the presence of RAPA as compared with untreated controls. […] Chemokine results obtained in two of the donors, showing disparity of RANTES levels in the presence of RAPA, are depicted in FIG. 8A.
The effect of RAPA on MIP-1β protein levels provided information regarding the mechanism by which RAPA increases β-chemokine levels. To this end, stimulated PBMCs from two normal donors and from a CCR5-null donor were cultured in the presence of RAPA as in previous experiments. MIP-1β levels in supernatants were evaluated on day 10. Representative results obtained in one of the normal donors are shown next to the results obtained on the CCR5-null donor (FIG. 8B).
PBMCs from a healthy donor were cultured in the presence of IL-2 and Rapamycin. On day 7, chemokines content in the supernatant was measured by ELISA and cell viability was determined by the MTT assay.

[3] = system: MDMs; assay: Cell viability of MDMs (MTT assay); assay type: cell-based, human; details: end of experiment (day 14)
Procedure: as §1, §3

[4] = system: HIV-1 SF 162; assay: Antiviral activity of RAPA in monocyte-derived macrophages; assay type: cell-based; details: Human immunodeficiency virus 1, Macrophage; 0.01 nM RAPA; data not shown
[5] = system: HIV-1 ADA; assay: Antiviral activity of RAPA in PBMCs (p24); assay type: cell-based; details: Human immunodeficiency virus 1, PBMC
Procedure: (§4) The following viruses were used in infection experiments, including HIV-1 IIIb, HIV-1 ADA, HIV-1 BaL, HIV-1 JRFL, HIV-1 JRCSF, and HIV-1 SF162. HIV-1 IIIb is a T cell line-adapted lab strain that uses CXCR4 for entry into cells, whereas the rest are isolates that use CCR5.
as §2
(§5) The antiviral activity of RAPA was assayed in PBMCs that had been cultured in the presence of RAPA for 7 days before infection. Cells were infected with the X4 HIV-1 IIIb and the R5 HIV-1 ADA strains. Infected cells were cultured in the presence of RAPA (same concentration as during pretreatment) for 7 additional days, during which time virus replication and cell viability were measured. […]

[6] = renal transplant recipients, cited from earlier work
[7] = system: five R5 strains of HIV-1; assay: Antiviral activity of low concentrations of RAPA in PBMCs, panel of R5 strains; assay type: cell-based; details: Human immunodeficiency virus 1, PBMC
Procedure: as §4, §2
RAPA at 0.01 nM inhibited R5 HIV-1 by 10-64% depending on the strains, whereas 0.1 nM RAPA inhibited virus replication by 15-85%. At 1 nM RAPA, all R5 viruses were inhibited by >90%.

[8] = system: PBMCs; assay: PBMC proliferation and viability (MTT assay)
Procedure: as §1
Donor PBMCs were cultured in the presence of IL-2 and RAPA (10-fold serial dilutions, from 10^4 to 0.01 nM).

[9] = Tolerability of Rapamycin in healthy volunteers; assay type: in vivo, human; details: 5 healthy volunteers, 2 mg/day after 6 mg loading dose, 14 days
Procedure: HIV-1 has been shown in most instances to use the chemokine receptor, CCR5, as a co-receptor for entry into macrophages and CD4 lymphocytes. The natural ligands for the CCR5 co-receptor are proteins called β-Chemokines. […] To assess the activity of β-Chemokine production levels and its effects on CCR5 receptors in vivo an open-labeled, non-randomized observational trial was performed in which 5 healthy volunteers were given 2 mg/day of Rapamycin, following a 6 mg loading dose, for 14 days. Peripheral blood for determining β-Chemokines was obtained at the screening visit, days 7 and 14 of the Rapamycin dosing, and at day 28 (which was two weeks following the last dose of Rapamycin). All 5 subjects completed the study and Rapamycin was well-tolerated.

[10] = system: HIV-1 IIIb; assay: Antiviral activity of RAPA in PBMCs (p24); assay type: cell-based; details: Human immunodeficiency virus 1, IIIB, PBMC
Procedure: as §4, §2, §5

[11] = system: resting CD4 T cells; assay: Cell viability / proliferation of patients' CD4 T cell cultures (trypan blue); assay type: cell-based, human; details: 5 μg/ml VE, days 7 or 14; data not shown
Procedure: (§6) Blood (50 ml) was drawn from 10 patients on antiretroviral therapy, whose viral load were <400 copies/ml and whose CD4 counts were >300/μl. Resting CD4 T cells were purified by negative selection using antibody-labeled magnetic beads (Dynal, Lake Success, N.Y.). Purified cells were activated by co-culture with γ-irradiated PBMCs from normal donors in the presence of 1 μg/ml anti-CD3 antibody (Coulter, Miami, Fla.) and 100 units/ml rhIL-2 (Roche, Indianapolis, Ind.). Cultures were set up in the absence or continuous presence of 5 μg/ml of VE (Vitamin E succinate, Sigma, St. Louis, Mo.), with medium replenishment every 3 or 4 days. Cultures were maintained for 14 days. Virus production was monitored by measuring p24 antigen (NEN, Boston, Mass.) in the culture supernatants on days 7 and 14. Cell viability was measured by trypan blue staining.

[12] = system: activated PBMCs; assay: β-chemokine levels in activated PBMCs cultured with Vitamin E; assay type: cell-based, human; details: day 6 after addition of Vitamin E, IL-2, FIG. 12
Procedure: B-chemokines levels were measured in activated PBMCs cuftured in the presence of Vitamin E, an antioxidant reported to induce G1 cycle arrest. PBMCs from a healthy donor were activated under the presence of the indicated stimuli for 72 h. Activated cells were cultured in the presence of IL-2 and Vitamin E. Supernatants were evaluated for β-chemokine content on day 6 after addition of Vitamin E. Cell viability was measured by MTT assay.

[13] = system: HIV-1; assay: HIV-1 production upon activation of patients' resting CD4 T cells (p24 ELISA); assay type: cell-based; details: 5 μg/ml VE
Procedure: HIV-1 gene expression on latently infected resting T cells is dependent on host transcriptional factors, such as NF-κB, that are induced on activated cells. In the present study we have evaluated the in vitro effect of adding Vitamin E (VE) to cultures of patients' resting CD4 T cells under conditions of cellular activation that promote virus expression.
as §6

[14] = IL-2 and RAPA for 10 days, four donors

For CO[C@H]1C[C@@H]2CC[C@@H](C)[C@@](O)(O2)C(=O)C(=O)N2CCCC[C@H]2C(=O)O[C@H]([C@H](C)C[C@@H]2CC[C@@H](O)[C@H](OC)C2)CC(=O)[C@H](C)/C=C(\C)[C@@H](O)[C@@H](OC)C(=O)[C@H](C)C[C@H](C)/C=C/C=C/C=C/1C [RAPA, rapamycin], the “inhibition of virus replication” value ([1]; 1 nM RAPA added after infection, no RAPA during differentiation, day 14, two donors) was roughly 80%, the inhibition at 0.001 µM ([1]; Human immunodeficiency virus 1, Macrophage, 336 h, 1 nM RAPA added after infection, no RAPA during differentiation, day 14, two donors, read-out: inhibition of virus replication) was roughly 60% and the inhibition at 10 pM ([1]; Human immunodeficiency virus 1, Macrophage, 0.01 nM RAPA, data not shown) was 64%. For the same compound, the “inhibition of virus production” value ([1]; RAPA 0.1-100 nM, day 14, monocytes pretreated 5 days) was 70-95%, the MIP-1β levels increase ([2]; CCR5-null donor, day 10) was 1.2 fold and the “MIP-1α levels, RAPA-treated versus untreated cultures” value [2, 14] was 6-39 fold. The “MIP-1β levels increase compared with untreated controls” value [2, 14] was 17-47 fold, the “MIP-1β protein increase compared with RAPA-untreated control” value ([2]; normal donor, day 10) was 9.3 fold and the “RAPA concentrations at which cell viability was reduced” value [3] was greater than 10 nM. The inhibition at 10 pM [4] was 45%, the inhibition at 0.01 µM ([5]; 10 nM RAPA, average of seven experiments (range of 88-97%)) was 91% and the inhibition at 0.1 µM ([5]; 100 nM RAPA, seven experiments (range of 92-99%)) was 94%. The therapeutic through levels ([6]; daily 2 mg) was 9.3 ± 4.4 nM, the therapeutic through levels ([6]; daily 5 mg) was 18.9 ± 8 nM and the inhibition at 10 pM ([7]; read-out: inhibition of R5 HIV-1) was 10 to 64%. For the same compound, the inhibition at 0.001 µM ([7]; read-out: inhibition of all R5 viruses) was greater than 90%, the inhibition at 0.0001 µM ([7]; read-out: inhibition of virus replication (R5 HIV-1)) was 15 to 85% and the “drug concentrations at which reduced proliferation was detected” value ([8]; IL-2, MTT assay on day 7) was no less than 1 nM. The “drug concentrations at which drug toxicity was observed” value ([8]; data not shown) was “above 1 nM”, the tolerability [9] was “well-tolerated” and the inhibition at 0.01 µM ([10]; 10 nM RAPA (range of 5-25%)) was 13.5%. For the same compound, the inhibition at 0.1 µM ([10]; 100 nM RAPA (range 29-60%)) was 32%.

With Cc1c(C)c2c(c(C)c1O)CC[C@@](C)(CCC[C@H](C)CCC[C@H](C)CCCC(C)C)O2 [Vitamin E, alpha-tocopherol] the “cell viability and cell proliferation” value [11] was “Neither cell viability nor cell proliferation was affected”, the “levels of β-chemokines” value [12] was “increased levels of β-chemokines” and the “virus production, mean Log p24” value ([13]; day 14, 9 patients, log of p24 pg/ml, absence of VE 3.58, p=0.016) was 2.06. For the same compound, the “cultures with positive virus isolation” value ([13]; day 14, untreated 9/10) was 7/10.
